We go through 81 compounds from PMC12040169 (PLOS Biology, 2025).

The nature of the data set: in vitro. The settings on record: human, hela cells, % viability.

A word on the viability: it is a read-out of living cells in per cent, often relative to untreated cells.

Structures are written as SMILES.

Take `C[C@@H](c1ccccc1)n1c(=O)[nH]c2ncc(-c3ccc(N(C)C)cc3)nc21` [CBK064352]: the viability at 28.5 h, 10 µM turned out to be 103%.

As to `Cc1cc(C2CCCCCN2S(=O)(=O)c2ccc3[nH]c(=O)[nH]c(=O)c3c2)no1` (stereo not drawn) [CBK286404], the viability at 28.5 h, 10 µM worked out at 94.2%.

`CCNC(=O)NCc1ccc(F)cc1` [CBK115581]: the viability at 28.5 h, 10 µM was determined as 84.9%.

For the compound `CCOC(=O)C(CNC(=O)CNC(=O)c1ccoc1)Cc1ccccc1` (stereo not drawn) [CBK305971], the viability at 28.5 h, 10 µM was 92.4%.

Turning to `CC(CC(=O)O)CC(=O)Nc1ccccc1C(=O)O` (stereo not drawn) [CBK265671], the viability at 28.5 h, 10 µM was determined as 99.2%.

In the case of `Cn1nnnc1SCc1nc(N)nc(Nc2ccccc2)n1` [CBK268092], the viability at 28.5 h, 10 µM came to 98.7%.

In the case of `c1ccc(CCNc2nccnc2-c2cccs2)nc1` [CBK036776], the viability at 28.5 h, 10 µM was determined as 97.7%.

Consider `COc1ccc(C(NC(=O)c2c(C)nc3sccn23)C2CC(O)C2)cn1` (stereo not drawn) [CBK307330], for which the viability at 28.5 h, 10 µM was found to be 95.3%.

`COc1ccc(N2CCN(c3cc(C)nc4cc(-c5nccn5C)nn34)CC2)cc1` [CBK286187]: the viability at 28.5 h, 10 µM is 87.8%.

For `O=S(=O)(Nc1ccc(C(O)(C(F)(F)F)C(F)(F)F)cc1)c1cccc2nsnc12` [CBK062096], the viability at 28.5 h, 10 µM is 108%.

As for `O=C(O)C1CC=C(Cl)CC1C(=O)Nc1ccc(Cl)cc1[N+](=O)[O-]` (stereo not drawn) [CBK265612], the viability at 28.5 h, 10 µM worked out at 101%.

With `C=C[C@H]1C[N@@]2CC[C@H]1C[C@@H]2CNS(=O)(=O)c1ccc(NC(C)=O)cc1` [CBK288749], the viability at 28.5 h, 10 µM stood at 98.9%.

Turning to `CCCCCc1nnc(Nc2nc(C)cc(C)n2)[nH]1` [CBK288155], the viability at 28.5 h, 10 µM is 95.4%.

With `Fc1cc(F)c(OCCCCOc2nccnc2N2CCNCC2)cc1F` [CBK028624T], the viability at 28.5 h, 10 µM worked out at 105%.

For `CCNC(=O)NC[C@H]1C[C@@H]2CCN1C[C@@H]2c1cc(-c2ccccc2)nc(C)n1` [CBK289125], the viability at 28.5 h, 10 µM is 116%.

`CCC(C)NC1=NC(=O)C(CC(=O)N(C)c2ccccc2)S1` (stereo not drawn) [CBK059110T]: the viability at 28.5 h, 10 µM was 83.3%.

For the compound `N#Cc1ccc(OCCO)cc1` [CBK000723], the viability at 28.5 h, 10 µM worked out at 107%.

Turning to `CCCC(=O)Nc1ccc(-c2csc(CCN3CCOC3=O)n2)cc1` [CBK305687], the viability at 28.5 h, 10 µM was determined as 97%.

As for `Cc1cc(-c2sc(N)nc2-c2cccs2)on1` [CBK284492], the viability at 28.5 h, 10 µM was found to be 87.9%.

Consider `COc1ccc(C2=Nc3ccc(Br)cc3C(c3ccccc3)N2CC(=O)NN)cc1` (stereo not drawn) [CBK263141], for which the viability at 28.5 h, 10 µM came out at 95.8%.

Consider `COCC1CCCN(Cc2ccc(Br)cc2)C1` (stereo not drawn) [CBK304624], for which the viability at 28.5 h, 10 µM came out at 108%.

For `COc1cc(-c2nccnc2N2CCN(c3ccncc3)CC2)cc(OC)c1OC` [CBK036847], the viability at 28.5 h, 10 µM worked out at 92%.

Consider `CCc1[nH]nc2c1C1(CN3CCC1CC3)C(C#N)=C(N)O2` (stereo not drawn) [CBK267454], for which the viability at 28.5 h, 10 µM is 101%.

Take `Cc1nnc(N2C(=O)c3oc4ccc(Cl)cc4c(=O)c3C2c2cccc(OCc3ccccc3)c2)s1` (stereo not drawn) [CBK266870]: the viability at 28.5 h, 10 µM stood at 95%.

On to `NS(=O)(=O)c1cccnc1NCc1ccccc1` [CBK288448], for which the viability at 28.5 h, 10 µM is 85.7%.

Turning to `CO[C@@]12CC[C@@H](O)C[C@@H]1N(C(=O)c1cccc3c1NCCC3)CC2` [CBK306741], the viability at 28.5 h, 10 µM stood at 109%.

In the case of `O[C@@H]1C[C@@H](c2nc(-c3cccnc3)no2)N(Cc2cccs2)C1` [CBK288840], the viability at 28.5 h, 10 µM stood at 111%.

In the case of `O=C(O)C1CC=CCC1C(=O)NCc1ccc(N2CCCC2=O)cc1` (stereo not drawn) [CBK270081], the viability at 28.5 h, 10 µM came out at 79.7%.

For the compound `O=C(Nc1ccccn1)c1c(O)n(Cc2ccccc2)c2ccccc2c1=O` [CBK291213], the viability at 28.5 h, 10 µM was determined as 90.3%.

Regarding `Cc1ccc(NC(=O)CCCn2cc([N+](=O)[O-])cn2)cc1Cl` [CBK268485], the viability at 28.5 h, 10 µM was 76.6%.

`O=C(NCC1(c2ccccc2)CCOCC1)c1ccno1` [CBK067408]: the viability at 28.5 h, 10 µM came to 98.2%.

For `CC(C)c1ccc(S(=O)(=O)Nc2ccon2)cc1` [CBK044584], the viability at 28.5 h, 10 µM was determined as 115%.

On to `Cc1cc(C)n(CC(=O)N[C@H]2CC[C@H]2N)c(=O)n1` [CBK307647], for which the viability at 28.5 h, 10 µM was determined as 91.9%.

Regarding `Cc1nn(C)c(O)c1Cc1c(F)cccc1Cl` [CBK067759], the viability at 28.5 h, 10 µM worked out at 92.5%.

Turning to `C=CCN1CC2(c3ccccc3)CN(CC=C)CC(c3ccccc3)(C1)C2=O` [CBK265987], the viability at 28.5 h, 10 µM was found to be 86.3%.

With `N=c1c2c3c(sc2ncn1CCCn1ccnc1)CCCC3` [CBK264211], the viability at 28.5 h, 10 µM is 95.5%.

For `Cn1cc(-c2nccnc2OC(c2ccccc2)c2ccccc2)cn1` [CBK107073], the viability at 28.5 h, 10 µM is 103%.

Take `CNC1CCCCCC1(O)c1ccccc1` (stereo not drawn) [CBK005073]: the viability at 28.5 h, 10 µM came to 99.2%.

Consider `Cc1cc(C)c2c(n1)oc1c(NC(C)C)ncnc12` [CBK287917], for which the viability at 28.5 h, 10 µM amounted to 108%.

On to `COc1ccccc1C1(O)CCCC2CN(C(C)=O)CC21` (stereo not drawn) [CBK283134], for which the viability at 28.5 h, 10 µM is 102%.

Turning to `Cc1ccc(Nc2nc(N)nc(CN3CCCC3)n2)cc1` [CBK270163], the viability at 28.5 h, 10 µM turned out to be 97.7%.

Consider `Cc1nn(CCC#N)c(C)c1[C@@H]1C=C[C@@H](NC(=O)Nc2ccc(Cl)cc2)C1` [CBK288803], for which the viability at 28.5 h, 10 µM is 95.8%.

As for `Cc1cccc(CNc2nccnc2-c2cccs2)c1` [CBK036808], the viability at 28.5 h, 10 µM was determined as 104%.

Take `CSc1ccc(/C=C(\C#N)c2nn(-c3ccccc3)c(N)c2C#N)cc1` [CBK262339]: the viability at 28.5 h, 10 µM was found to be 105%.

For the compound `Nc1nc(CSc2nnc(-c3ccncc3)o2)nc(Nc2ccc(F)cc2)n1` [CBK266221], the viability at 28.5 h, 10 µM is 116%.

Regarding `O=c1[nH]c(=O)c2cc(S(=O)(=O)NCCN3CCc4ccccc43)ccc2[nH]1` [CBK286360], the viability at 28.5 h, 10 µM is 91.5%.

Take `COCC(=O)NC[C@H]1C[C@@H]2CCN1C[C@@H]2c1cc(-c2ccccc2)nc(C)n1` [CBK289123]: the viability at 28.5 h, 10 µM was found to be 89.3%.

For the compound `Nc1nnc(SCC(=O)N(Cc2ccccc2F)C2CC2)s1` [CBK295179], the viability at 28.5 h, 10 µM was 84.3%.

As for `Fc1ccc(COc2ccc(Cl)cc2CNCc2ccccn2)cc1` [CBK269899C], the viability at 28.5 h, 10 µM was determined as 85.5%.

In the case of `O=C(NCc1cccs1)c1cc(S(=O)(=O)N2CCOCC2)c(Cl)cc1Cl` [CBK269657], the viability at 28.5 h, 10 µM was determined as 97.3%.

For the compound `Cc1ccc(CN2CCC(N3C(=O)NC4(CCN(CC(C)C)CC4)C3=O)CC2)cc1C` [CBK285822], the viability at 28.5 h, 10 µM turned out to be 96.9%.

With `CC(C)Cn1c(=O)c(C(=O)Nc2cccc(Cl)c2)c(O)c2ccccc21` [CBK159967], the viability at 28.5 h, 10 µM was 103%.

Take `OCc1ccccc1-c1cn2ccnc2c(Nc2ccc(N3CCOCC3)cc2)n1` [CBK037956]: the viability at 28.5 h, 10 µM stood at 85.8%.

Consider `Cc1c(C)n(Cc2ccco2)c2ncnc(SCCC(=O)O)c12` [CBK307569], for which the viability at 28.5 h, 10 µM came out at 105%.

Consider `COc1ccc(-c2nnc([C@H]3CCN(Cc4cccc(C#N)c4)C3)o2)cc1` [CBK289400], for which the viability at 28.5 h, 10 µM was 94.8%.

Take `O=C(Nc1cccc(Cl)c1)c1cccc(NC(=O)c2ccccc2C(=O)O)c1` [CBK287122]: the viability at 28.5 h, 10 µM turned out to be 81.8%.

On to `Cc1nc2ccccn2c1CN1CCC(Oc2ccc(F)cc2)CC1` [CBK281803], for which the viability at 28.5 h, 10 µM worked out at 90.1%.

For the compound `C=CCn1c(SCC(=O)N2CCN(c3ccccc3)CC2)nnc1-c1ccc(N)cc1` [CBK267956], the viability at 28.5 h, 10 µM came to 99.8%.

For `Cc1cccc(CN2CCC(NC(=O)Cn3ccccc3=O)CC2)c1` [CBK305667], the viability at 28.5 h, 10 µM turned out to be 111%.

Take `Oc1nc(O)c2c(n1)NC1(CCC1)[C@@H]1C[C@@H](O)[C@@H](O)[C@H]21` [CBK303249]: the viability at 28.5 h, 10 µM was 91.4%.

With `CC(C)Nc1nc2ccccc2nc1Sc1ccncc1` [CBK115250], the viability at 28.5 h, 10 µM amounted to 102%.

For the compound `CCN1C(=O)CC2(C1=O)C(=O)N(Cc1nc(OC)cc(OC)n1)c1ccccc12` (stereo not drawn) [CBK075510], the viability at 28.5 h, 10 µM is 75.8%.

On to `CCOC(=O)c1c(NC(=O)CSc2n[nH]c(N)n2)sc2c1CCCCC2` [CBK266569], for which the viability at 28.5 h, 10 µM stood at 101%.

Take `COc1ccccc1CCNC(=O)c1cnccn1` [CBK268147]: the viability at 28.5 h, 10 µM was found to be 59.7%.

`CC(=O)N1CCc2sccc2C1c1ccc(NCc2ccc(F)c(F)c2)cc1` (stereo not drawn) [CBK286452]: the viability at 28.5 h, 10 µM was 101%.

Take `CCOC(=O)c1[nH]c2ccccc2c1NC(=O)COc1ccc(Cl)cc1Cl` [CBK160134]: the viability at 28.5 h, 10 µM was found to be 102%.

For the compound `OC(CN1CCC(O)(c2ccccc2F)CC1)c1ccc(Cl)cc1` (stereo not drawn) [CBK283312], the viability at 28.5 h, 10 µM worked out at 87%.

Turning to `O=C1NCCc2c1[nH]c1ccccc21` [CBK101624], the viability at 28.5 h, 10 µM turned out to be 65.5%.

Turning to `CN(C)/C=N/c1nc(=O)[nH]c2c1ncn2C1CC(O)C(CO)O1` (stereo not drawn) [CBK201285], the viability at 28.5 h, 10 µM came out at 118%.

For `O=C(COc1ccc(C2CCCCC2)cc1)Nc1cccc(-c2nc3ncccc3o2)c1` [CBK264569], the viability at 28.5 h, 10 µM turned out to be 90.9%.

As to `CN(C)CCNC(=O)c1cncc(-c2ccc(C(=O)N3CCOCC3)cc2)c1` [CBK158619], the viability at 28.5 h, 10 µM was 95.6%.

As to `O=C(O)C1CCN(C(=O)c2ccc3nsnc3c2)CC1` [CBK057344], the viability at 28.5 h, 10 µM was 99.8%.

With `Cc1cc(C)cc(Nc2cc(C)n3c(=O)[nH]nc3n2)c1` [CBK288380], the viability at 28.5 h, 10 µM came to 91.8%.

As for `CC(C)(C)OC(=O)NCC(N)=S` [CBK007979], the viability at 28.5 h, 10 µM stood at 100%.

Regarding `O=C(CCCn1c(=O)[nH]c2ccsc2c1=O)Nc1ccc(F)cc1` [CBK287769], the viability at 28.5 h, 10 µM was 93.3%.

On to `Cc1ccc(CN(Cc2cnc(C)n2C)CC2CCCO2)o1` (stereo not drawn) [CBK283291], for which the viability at 28.5 h, 10 µM was 100%.

Consider `O=C1CCCN1CCCNc1nccnc1-c1cccnc1` [CBK089246], for which the viability at 28.5 h, 10 µM amounted to 110%.

With `O=C1CN(C(=O)NCC2COc3ccccc3O2)CCN1` (stereo not drawn) [CBK155847], the viability at 28.5 h, 10 µM came to 88.3%.

Take `CC(C)(C)c1ccc(C(=O)N2CCC(C(=O)O)CC2)cc1` [CBK286949]: the viability at 28.5 h, 10 µM was 108%.

Consider `COc1ccc(CN(CCCN2CCOCC2)C(=O)NCCCN2CCCC2=O)cc1OC` [CBK159180], for which the viability at 28.5 h, 10 µM is 93.2%.

As to `COc1ccc(C(NC(=O)C2CCN(C(=O)C(C)(C)C)CC2)c2cnccn2)cc1` (stereo not drawn) [CBK059791], the viability at 28.5 h, 10 µM stood at 97%.
